Like-named read-outs stand apart in the source and are kept apart here.
Assays:
[1] = system: cortisol-producing adrenal adenoma cultures; assay: Cortisol production in primary cortisol-producing adrenal adenoma cultures; format: cell-based, human
Description: To obtain primary cultures, adrenal specimens (adrenocortical adenomas, adrenal hyperplasias and adrenocortical carcinomas) were collected after adrenalectomy at the department of Surgery, Erasmus University Medical Center, Rotterdam, the Netherlands, between April 2016 and May 2018. The study was conducted under guidelines that have been approved by the Medical Ethics Committee of the Erasmus Medical Center and informed consent was obtained from all patients. Immediately after surgery, specimens were minced into small pieces of 2-3 mm^3, washed in culture medium and centrifuged for 5 minutes at 600 g. The tissue was stored overnight in culture medium at 4° C., where after the tissue was centrifuged again and the supernatant was removed. Fragments were dissociated using 10-25 ml collagenase type 1 (2 mg/ml: Sigma-Aldrich), followed by incubation at 37° C. for up to two hours. Ficoll (GE healthcare) density gradient separation was used once or twice as required in order to separate contaminating red blood cells from the tumor cells. Cell viability and cell amount were counted by trypan blue exclusion. Dissociated cells were plated at a density of 10^5 cells per well. ACTH-secreting corticotroph pituitary adenoma tissue from patients with Cushing's disease (n=2) was available after transsphenoidal surgery. Single-cell suspensions of the pituitary adenoma tissues were prepared as previously described in detail.
Owing to a limited number of cells obtained from the specimens, not all experiments were carried out in every primary culture.
(§1) Cortisol concentrations were measured in the supernatant using a chemiluminescence immunoassay system (Immulite 2000XPi; Siemens DPC Inc., Los Angeles, Calif., USA). In addition, we carried out multi-steroid analysis by liquid chromatography/mass spectrometry (LC/MS-MS) to accurately quantify androstenedione, corticosterone, cortisol, 11-deoxycortisol, DHEA, DHEAS, progesterone, 17-hydroxyprogesterone, and testosterone. Concentrations that were tested on the LC/MS-MS were closest to 50% inhibition or maximal inhibition of cortisol as determined by the immunoassay. Steroids were quantified with respect to a calibration series, with internal standards. Steroids were quantified on a Xevo TQS LC-MS/MS (Waters Chromatography).
(§2) Statistical analysis was performed using Graphpad Prism 6.0 (Graphpad Software, San Diego, CA). Non-linear regression curve fitting program was used to calculate the half maximal inhibitory concentrations (IC50) on cortisol production. Effects of both compounds on the steroid profile were measured as absolute change compared to control and compared using the Student's t-test. When assessing differences between effects of both compounds, the percentage change was evaluated and compared in order to correct for differences in the vehicle treated control cells. Values of P<0.05 were considered statistically significant and data are presented as mean SEM.

[2] = system: HAC15 cells; assay: Steroid profile by LC/MS-MS in HAC15 cells; format: cell-based, Human; conditions: 0.5 μM
Description: Human adrenocortical carcinoma HAC15 and mouse corticotroph AtT20 cells were used, purchased as a kind gift by Dr. W. Rainey, and obtained from Dr. J. Tooze (European Organization for Molecular Biology), respectively. Both cell lines were cultured in 75 cm^2 flasks at 37° C. in a humidified incubator (Greiner Bio-One, Alphen a/d Rijn, the Netherlands) at 5% CO2. Dulbecco's Modified Eagle Medium F12 containing 5% fetal calf serum was used for HAC15, whereas AtT20 cells were cultured in Dulbecco's minimal essential medium (DMEM) supplemented with 10% fetal calf serum. Both mediums were supplemented with L-glutamine (2 mmol/L) and penicillin (10^5 U/L). Short tandem repeat (str) profiling using a Powerplex Kit (Promega, Leiden, the Netherlands) of HAC15 and AtT20 gave results consistent with the ATCC database, confirming the identity of both cell lines. Medium and supplements were obtained from Invitrogen, Breda, the Netherlands. Once a week, cells were harvested with trypsin (0.05%)-EDTA (0.53 mM) and resuspended in culture medium. Levoketoconazole (COR-003) and racemic ketoconazole (both from Cortendo AB) were dissolved in absolute ethanol (EtOH), according to manufacturer's instructions, and stored at −20° C. at a stock concentration of […]. At the start of each experiment, both drugs were freshly prepared and diluted in EtOH in the correct concentrations. Synacten (synthetic ACTH, Novartis Pharma A.G.) stock concentration was stored at 4° C. and dissolved in culture medium at the day of use. The final concentrations of ACTH were chosen based on a dose-response curve in HAC15 cells and previously reported studies in the literature. For HAC15, 200,000 and 100,000 cells were plated in 0.5 ml medium in 24 well plates for experiments of 1 and 3 days, respectively. For AtT20, cell amounts were 100,000 and 30,000. One day after seeding the HAC15 cells, the medium was refreshed and cells were treated 1 or 3 days in quadruplicate with levoketoconazole or racemic ketoconazole (0.05-5 μM), with or without 10 nM ACTH. To study effects of both compounds on pituitary AtT20 cells, concentrations of 0.1 to 10 μM of both drugs were used. Controls were vehicle treated. […] Media were collected after 1 or 3 days of incubation and stored at −20° C. until analysis. All cell culture experiments were carried out at least twice.
as §1, §2

[3] = HAC15, ACTH, 3 days, listed as LK

CC(=O)N1CCN(c2ccc(OC[C@@H]3CO[C@@](Cn4ccnc4)(c4ccc(Cl)cc4Cl)O3)cc2)CC1 (relative stereo) [levoketoconazole, 2S,4R cis-1-acetyl-4-[4-[[2-(2,4-dichlorophenyl)-2-(1H-imidazol-1-ylmethyl)-1,3-dioxolan-4-yl]methoxyl]phenyl]piperazine]
IC50 ([1]; CPA no. 1, basal condition, 3 days, read-out: IC50 inhibition of cortisol production): 0.116 µM | IC50 ([1]; CPA no. 2, basal condition, 3 days, read-out: IC50 inhibition of cortisol production): 0.125 µM | IC50 ([1]; CPA no. 3, basal condition, 3 days, read-out: IC50 inhibition of cortisol production): 0.14 µM | IC50 ([1]; CPA no. 4, basal condition, 3 days, read-out: IC50 inhibition of cortisol production): 0.0631 µM | IC50 ([1]; basal condition, ACA (n=4), read-out: mean IC50 cortisol production): 0.11 µM | total sum of decrease of steroids ([2]; HAC15, ACTH): −2,811 nmol/L | 11-DOC absolute change vs ACTH stimulation with vehicle ([2]; HAC15, ACTH, 3 days): -1524 nmol/L | 11-DOC percentage change vs ACTH stimulation with vehicle ([2]; HAC15, ACTH, 3 days): −47% | 17-OHP absolute change vs ACTH stimulation with vehicle ([2]; HAC15, ACTH, 3 days): -24.73 nmol/L | 17-OHP percentage change vs ACTH stimulation with vehicle ([2]; HAC15, ACTH, 3 days): (−47%) | Androstenedione absolute change vs ACTH stimulation with vehicle ([2]; HAC15, ACTH, 3 days): -943.7 nmol/L | Androstenedione percentage change vs ACTH stimulation with vehicle ([2]; HAC15, ACTH, 3 days): (−52%) | Corticosterone absolute change vs ACTH stimulation with vehicle ([2]; HAC15, ACTH, 3 days): -1.063 nmol/L | Corticosterone percentage change vs ACTH stimulation with vehicle ([2]; HAC15, ACTH, 3 days): (−36%) | Cortisol absolute change vs ACTH stimulation with vehicle ([2]; HAC15, ACTH, 3 days): -13.81 nmol/L | Cortisol percentage change vs ACTH stimulation with vehicle ([2]; HAC15, ACTH, 3 days): −31% | DHEA absolute change vs ACTH stimulation with vehicle ([2]; HAC15, ACTH, 3 days): -13.81 nmol/L | DHEA percentage change vs ACTH stimulation with vehicle ([2]; HAC15, ACTH, 3 days): (−31%) | DHEAS absolute change vs ACTH stimulation with vehicle ([2]; HAC15, ACTH, 3 days): -250.1 nmol/L | DHEAS percentage change vs ACTH stimulation with vehicle ([2]; HAC15, ACTH, 3 days): (−43%) | Prog absolute change vs ACTH stimulation with vehicle ([2]; HAC15, ACTH, 3 days): -2.163 nmol/L | Prog percentage change vs ACTH stimulation with vehicle ([2]; HAC15, ACTH, 3 days): (−64%) | Testosterone absolute change vs ACTH stimulation with vehicle ([2]; HAC15, ACTH, 3 days): -30.52 nmol/L | Testosterone percentage change vs ACTH stimulation with vehicle ([2]; HAC15, ACTH, 3 days): (−71%) | 11-DOC absolute change vs ACTH stimulation with vehicle [2, 3]: -1524 nmol/L | 11-DOC percentage change vs ACTH stimulation with vehicle [2, 3]: (−47%) | Cortisol absolute change vs ACTH stimulation with vehicle [2, 3]: -21.80 nmol/L | Cortisol percentage change vs ACTH stimulation with vehicle [2, 3]: (−65%) | 11-DOC absolute change vs control ([2]; HAC15, Basal, 3 days): -1129 nmol/L | 11-DOC percentage change vs control ([2]; HAC15, Basal, 3 days): (−48%) | 17-OHP absolute change vs control ([2]; HAC15, Basal, 3 days): -26.89 nmol/L | 17-OHP percentage change vs control ([2]; HAC15, Basal, 3 days): (−57%) | Androstenedione absolute change vs control ([2]; HAC15, Basal, 3 days): -1105 nmol/L | Androstenedione percentage change vs control ([2]; HAC15, Basal, 3 days): (−56%) | Corticosterone absolute change vs control ([2]; HAC15, Basal, 3 days): -0.2938 nmol/L | Corticosterone percentage change vs control ([2]; HAC15, Basal, 3 days): (−39%) | Cortisol absolute change vs control ([2]; HAC15, Basal, 3 days): -16.36 nmol/L | Cortisol percentage change vs control ([2]; HAC15, Basal, 3 days): (−69%) | DHEA absolute change vs control ([2]; HAC15, Basal, 3 days): -31.04 nmol/L | DHEA percentage change vs control ([2]; HAC15, Basal, 3 days): (−44%) | DHEAS absolute change vs control ([2]; HAC15, Basal, 3 days): -658.6 nmol/L | DHEAS percentage change vs control ([2]; HAC15, Basal, 3 days): (−56%) | Prog absolute change vs control ([2]; HAC15, Basal, 3 days): -0.9125 nmol/L | Prog percentage change vs control ([2]; HAC15, Basal, 3 days): (−55%) | Testosterone absolute change vs control ([2]; HAC15, Basal, 3 days): -39.19 nmol/L | Testosterone percentage change vs control ([2]; HAC15, Basal, 3 days): (−64%) | total sum of decrease of steroids ([2]; HAC15, basal): −3,007 nmol/L

From US12201632B2, “Levoketoconazole for treatment of congenital adrenal hyperplasia and primary aldosteronism” (Strongbridge Dublin Limited, priority 2018, dated 2025)
